Target: T1, HDAC6 enzyme (Homo sapiens, UniProt Q9UBN7)
T1 construct: HDAC6 enzyme prepared by transducing full length HDAC6 gene into Sf-9 insect cells; GST; purchased SignalChem; host or cells: Sf-9 insect cells
T1 sequence (Q9UBN7 1-1215): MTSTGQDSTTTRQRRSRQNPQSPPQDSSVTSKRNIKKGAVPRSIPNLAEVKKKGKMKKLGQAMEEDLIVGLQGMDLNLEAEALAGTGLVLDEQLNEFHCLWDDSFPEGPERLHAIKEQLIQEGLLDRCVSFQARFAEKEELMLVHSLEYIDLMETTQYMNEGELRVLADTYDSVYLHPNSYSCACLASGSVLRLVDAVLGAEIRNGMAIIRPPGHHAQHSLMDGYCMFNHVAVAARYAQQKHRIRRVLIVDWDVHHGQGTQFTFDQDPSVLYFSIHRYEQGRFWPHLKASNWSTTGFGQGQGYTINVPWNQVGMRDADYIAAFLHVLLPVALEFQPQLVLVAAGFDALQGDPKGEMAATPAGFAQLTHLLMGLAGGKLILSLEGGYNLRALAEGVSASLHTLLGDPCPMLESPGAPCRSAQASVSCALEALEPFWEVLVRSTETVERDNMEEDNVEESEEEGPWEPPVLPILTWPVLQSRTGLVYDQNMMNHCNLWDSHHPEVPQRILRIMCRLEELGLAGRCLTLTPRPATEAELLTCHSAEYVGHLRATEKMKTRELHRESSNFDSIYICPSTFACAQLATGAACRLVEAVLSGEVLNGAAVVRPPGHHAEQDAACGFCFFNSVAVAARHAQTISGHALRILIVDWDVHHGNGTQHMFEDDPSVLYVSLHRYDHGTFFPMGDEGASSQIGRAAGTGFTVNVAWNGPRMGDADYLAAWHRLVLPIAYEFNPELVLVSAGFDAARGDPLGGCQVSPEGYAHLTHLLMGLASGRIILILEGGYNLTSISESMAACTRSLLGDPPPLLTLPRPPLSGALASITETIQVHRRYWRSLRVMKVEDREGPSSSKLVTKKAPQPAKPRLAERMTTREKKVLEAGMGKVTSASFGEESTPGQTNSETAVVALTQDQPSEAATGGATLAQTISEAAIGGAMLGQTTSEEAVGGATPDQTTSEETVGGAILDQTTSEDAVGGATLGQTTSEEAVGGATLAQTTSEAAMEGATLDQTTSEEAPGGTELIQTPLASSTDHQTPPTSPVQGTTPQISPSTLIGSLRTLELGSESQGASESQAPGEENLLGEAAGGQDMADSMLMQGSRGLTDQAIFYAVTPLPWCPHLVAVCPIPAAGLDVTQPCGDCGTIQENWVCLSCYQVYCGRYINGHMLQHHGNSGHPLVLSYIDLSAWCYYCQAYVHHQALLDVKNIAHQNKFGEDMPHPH
Test: HDAC6 enzyme inhibitory assay (HDAC-Glo I/II Assay kit)
Format: biochemical
Settings: wells without enzyme = 100% inhibition; for inhibition at 10 µM: read-out: HDAC6 inhibitory rate (%) (10 μM)
Procedure, shortened: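 Full-length GST-purified HDAC6 from Sf-9 cells preincubated with compound 60 min at room temperature in Tris-HCl pH 7.5 buffer with MgCl2, KCl, NaCl, glutathione, Tween-20. Substrate-developer reaction 20 min, luminescence read; no-enzyme wells set as 100% inhibition.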

| Compound | inhibition at 10 µM [%] | further results |
| --- | --- | --- |
| O=C1c2cc(-c3nnc(C(F)F)o3)ccc2CN1[C@H](c1ccccn1)[C@@H](O)c1cc(Cl)ccn1 (single isomer, unassigned) [Example 123, 2-[(1R*,2R*)-2-(4-chloropyridin-2-yl)-2-hydroxy-1-(pyridin-2-yl)ethyl]-6-[5-(difluoromethyl)-1,3,4-oxadiazol-2-yl]-2,3-dihydro-1H-isoindol-1-one] | 101 | – |
| O=C1c2cc(-c3nnc(C(F)F)o3)ccc2CN1[C@H](c1ccccn1)[C@@H](O)c1cc(Cl)ccn1 (single isomer, unassigned) [Example 124, 2-[(1R*,2R*)-2-(4-chloropyridin-2-yl)-2-hydroxy-1-(pyridin-2-yl)ethyl]-6-[5-(difluoromethyl)-1,3,4-oxadiazol-2-yl]-2,3-dihydro-1H-isoindol-1-one] | – | HDAC6 inhibitory rate (%) (10 μM) (10 µM): 100% |
| O=C1c2cc(-c3nnc(C(F)F)o3)ccc2CN1[C@H](c1cnccn1)[C@@H](O)c1ccccc1 (single isomer, unassigned) [Example 127, 6-[5-(difluoromethyl)-1,3,4-oxadiazol-2-yl]-2-[(1R*,2S*)-2-hydroxy-2-phenyl-1-(pyrazin-2-yl)ethyl]-2,3-dihydro-1H-isoindol-1-one] | 99 | – |
| O=C1c2cc(-c3nnc(C(F)F)o3)ccc2CN1[C@H](c1cnccn1)[C@@H](O)c1ccccc1 (single isomer, unassigned) [Example 128, 6-[5-(difluoromethyl)-1,3,4-oxadiazol-2-yl]-2-[(1R*,2S*)-2-hydroxy-2-phenyl-1-(pyrazin-2-yl)ethyl]-2,3-dihydro-1H-isoindol-1-one] | – | HDAC6 inhibitory rate (%) (10 μM): 99% |
| O=C1c2cc(-c3nnc(C(F)F)o3)ccc2CN1[C@H](C1CC1)[C@@H](O)c1cccc(Cl)n1 (single isomer, unassigned) [Example 130, 2-[(1R*,2R*)-2-(6-chloropyridin-2-yl)-1-cyclopropyl-2-hydroxyethyl]-6-[5-(difluoromethyl)-1,3,4-oxadiazol-2-yl]-2,3-dihydro-1H-isoindol-1-one] | – | HDAC6 inhibitory rate (%) (10 μM) (10 µM): 98% |
| O=C1c2cc(-c3nnc(C(F)F)o3)ccc2CN1[C@H](c1ccc(F)cc1)[C@@H](O)c1ccc(F)nc1 (single isomer, unassigned) [Example 132, 6-[5-(difluoromethyl)-1,3,4-oxadiazol-2-yl]-2-[(1R*,2S*)-1-(4-fluorophenyl)-2-(6-fluoropyridin-3-yl)-2-hydroxyethyl]-2,3-dihydro-1H-isoindol-1-one] | – | HDAC6 inhibitory rate (%) (10 μM): 99% |
| O=C1c2cc(-c3nnc(C(F)F)o3)ccc2CN1[C@@H](c1ccc(F)cn1)[C@H](O)c1ccc(F)cn1 (stereo in doubt) [Example 6, 2-[(1S,2S)-1,2-bis(5-fluoropyridin-2-yl)-2-hydroxyethyl]-6-[5-(difluoromethyl)-1,3,4-oxadiazol-2-yl]-2,3-dihydro-1H-isoindol-1-one] | 100 | – |
| O=C1c2cc(-c3nnc(C(F)F)o3)ccc2CN1[C@@H](c1ccccn1)[C@H](O)c1ccccn1 [Example 2, 6-[5-(difluoromethyl)-1,3,4-oxadiazol-2-yl]-2-[(1S,2S)-2-hydroxy-1,2-di(pyridin-2-yl)ethyl]-2,3-dihydro-1H-isoindol-1-one] | 100 | – |
| O=C1c2cc(-c3nnc(C(F)F)o3)ccc2CN1[C@H](c1ccccc1)[C@@H](O)c1ccccc1 [Example 11, 6-[5-(difluoromethyl)-1,3,4-oxadiazol-2-yl]-2-[(1R,2S)-2-hydroxy-1,2-diphenylethyl]-2,3-dihydro-1H-isoindol-1-one] | 99 | – |
| O=C1c2cc(-c3nnc(C(F)F)o3)ccc2CN1[C@H](c1ccccc1)[C@H](O)c1ccccc1 [Example 12, 6-[5-(difluoromethyl)-1,3,4-oxadiazol-2-yl]-2-[(1R,2R)-2-hydroxy-1,2-diphenylethyl]-2,3-dihydro-1H-isoindol-1-one] | 100 | – |
| O=C1c2cc(-c3nnc(C(F)F)o3)ccc2CN1[C@@H](c1ccccc1)[C@@H](O)c1ccccc1 [Example 13, 6-[5-(difluoromethyl)-1,3,4-oxadiazol-2-yl]-2-[(1S,2S)-2-hydroxy-1,2-diphenylethyl]-2,3-dihydro-1H-isoindol-1-one] | 99 | – |

More lines, main results first:

| inhibition at 10 µM [%] | Compound | further results |
| --- | --- | --- |
| 100 | O=C1c2cc(-c3nnc(C(F)F)o3)ccc2CN1[C@H](c1cccnn1)[C@@H](O)c1cccc(Cl)c1 (single isomer, unassigned) [Example 122, 2-[(1R*,2S*)-2-(3-chlorophenyl)-2-hydroxy-1-(pyridazin-3-yl)ethyl]-6-[5-(difluoromethyl)-1,3,4-oxadiazol-2-yl]-2,3-dihydro-1H-isoindol-1-one] | – |
| 101 | O=C1c2cc(-c3nnc(C(F)F)o3)ccc2CN1[C@H](c1cccc(F)n1)[C@@H](O)c1ccc(F)cn1 (single isomer, unassigned) [Example 126, 6-[5-(difluoromethyl)-1,3,4-oxadiazol-2-yl]-2-[(1R*,2R*)-2-(5-fluoropyridin-2-yl)-1-(6-fluoropyridin-2-yl)-2-hydroxyethyl]-2,3-dihydro-1H-isoindol-1-one] | – |
| 100 | O=C1c2cc(-c3nnc(C(F)F)o3)ccc2CN1[C@H](C1CC1)[C@@H](O)c1cccc(Cl)n1 (single isomer, unassigned) [Example 129, 2-[(1R*,2R*)-2-(6-chloropyridin-2-yl)-1-cyclopropyl-2-hydroxyethyl]-6-[5-(difluoromethyl)-1,3,4-oxadiazol-2-yl]-2,3-dihydro-1H-isoindol-1-one] | – |
| 99 | O=C1c2cc(-c3nnc(C(F)F)o3)ccc2CN1[C@H](c1ccc(F)cc1)[C@@H](O)c1ccc(F)nc1 (single isomer, unassigned) [Example 131, 6-[5-(difluoromethyl)-1,3,4-oxadiazol-2-yl]-2-[(1R*,2S*)-1-(4-fluorophenyl)-2-(6-fluoropyridin-3-yl)-2-hydroxyethyl]-2,3-dihydro-1H-isoindol-1-one] | – |
| 100 | O=C1c2cc(-c3nnc(C(F)F)o3)ccc2CN1[C@@H](c1ccccn1)[C@H](O)c1ccc(F)cn1 [Example 4, 6-[5-(difluoromethyl)-1,3,4-oxadiazol-2-yl]-2-[(1S,2S)-2-(5-fluoropyridin-2-yl)-2-hydroxy-1-(pyridin-2-yl)ethyl]-2,3-dihydro-1H-isoindol-1-one] | – |
| 102 | O=C1c2cc(-c3nnc(C(F)F)o3)ccc2CN1[C@H](c1ccccn1)[C@@H](O)c1cccc(F)n1 [Example 7, 6-[5-(difluoromethyl)-1,3,4-oxadiazol-2-yl]-2-[(1R,2R)-2-(6-fluoropyridin-2-yl)-2-hydroxy-1-(pyridin-2-yl)ethyl]-2,3-dihydro-1H-isoindol-1-one] | – |
| 99 | O=C1c2cc(-c3nnc(C(F)F)o3)ccc2CN1[C@@H](c1ccccn1)[C@H](O)c1cccc(F)n1 [Example 8, 6-[5-(difluoromethyl)-1,3,4-oxadiazol-2-yl]-2-[(1S,2S)-2-(6-fluoropyridin-2-yl)-2-hydroxy-1-(pyridin-2-yl)ethyl]-2,3-dihydro-1H-isoindol-1-one] | – |
| 100 | O=C1c2cc(-c3nnc(C(F)F)o3)ccc2CN1[C@H](C1CC1)[C@@H](O)c1ccc(F)cc1 [Example 9, 2-[(1R,2S)-1-cyclopropyl-2-(4-fluorophenyl)-2-hydroxyethyl]-6-[5-(difluoromethyl)-1,3,4-oxadiazol-2-yl]-2,3-dihydro-1H-isoindol-1-one] | – |
| 100 | O=C1c2cc(-c3nnc(C(F)F)o3)ccc2CN1[C@H](C1CC1)[C@@H](O)c1cccc(F)c1 [Example 10, 2-[(1R,2S)-1-cyclopropyl-2-(3-fluorophenyl)-2-hydroxyethyl]-6-[5-(difluoromethyl)-1,3,4-oxadiazol-2-yl]-2,3-dihydro-1H-isoindol-1-one] | – |
| 100 | O=C1c2cc(-c3nnc(C(F)F)o3)ccc2CN1[C@@H](c1ccccc1)[C@H](O)c1ccccc1 [Example 14, 6-[5-(difluoromethyl)-1,3,4-oxadiazol-2-yl]-2-[(1S,2R)-2-hydroxy-1,2-diphenylethyl]-2,3-dihydro-1H-isoindol-1-one] | – |

From US12384770B2, “Heterocyclic compound” (Takeda Pharmaceutical Company Limited, priority 2019, dated 2025)
